Results on 57 compounds are retold here after the RepoRT retention time repository.

The data set is described as follows: A: acetonitrile + 0.1% formic acid + 10 mM ammonium formate; B: 5% water + 95% acetonitrile + 0.1% formic acid + 10 mM ammonium formate; gradient (min/%B) 0/10 2/10 22/100 27/100 27.1/10. Particulars: stereoisomer not certain.

For `NC(CSCC(=O)O)C(=O)O` (configuration not stated) [Carbocysteine], the LC retention time came out at 6.96 min.
With `NC(=O)Cc1c[nH]c2ccccc12` [Indole-3-acetamide], the LC retention time stood at 0.475 min.
The same measure for `O=C(O)c1ccc(=O)[nH]c1` [6-Hydroxynicotinic acid]: 5.17 min.
In the case of `C[S+](CC[C@H](N)C(=O)[O-])C[C@H]1O[C@@H](n2cnc3c(N)ncnc32)[C@H](O)[C@@H]1O` (stereo partly drawn) [S-(5'-Adenosyl)-L-methionine], the LC retention time was 8.08 min.
The same measure for `NC(N)=NCCC[C@H](N)C(=O)O` [L-Arginine]: 7.48 min; for `COc1ccc(C2CC(=O)c3c(O)cc(OC4OC(COC5OC(C)C(O)C(O)C5O)C(O)C(O)C4O)cc3O2)cc1O` (configuration not stated) [Hesperidin]: 2.97 min; for `N[C@@H](Cc1ccccc1)C(=O)O` [L-Phenylalanine]: 4.83 min.
The same measure for `Cn1c(=O)[nH]c(=O)c2[nH]cnc21` [3-Methylxanthine]: 1.15 min.
Turning to `Nc1nc2c(ncn2C2CC(O)C(COP(=O)(O)O)O2)c(=O)[nH]1` (configuration not stated) [2'-Deoxyguanosine 5'-monophosphate], the LC retention time stood at 7.1 min.
In the case of `CC(=O)NCCCCCN` [N-(5-Aminopentyl)acetamide], the LC retention time was 4.61 min.
Take `CN(CC(=O)O)C(=N)N` [Creatine]: the LC retention time was found to be 6.15 min.
Then `O=C(O)CN(CCO)CCO` [Bicine], with 6.2 min; and `OCC1OC(OCC2OC(OC3(CO)OC(CO)C(O)C3O)C(O)C(O)C2O)C(O)C(O)C1O` [D-(+)-Raffinose], with 7.42 min.
The same measure for `CCCCCC(=O)OCC(COC(=O)CCCCC)OC(=O)CCCCC` [Glycerol Trihexanoate]: 0.406 min; for `CCCC(=O)OCC(COC(=O)CCC)OC(=O)CCC` [Glycerol Tributyrate]: 0.412 min; for `COc1ccc2[nH]cc(CC(N)C(=O)O)c2c1` (racemic) [5-Methoxy-DL-tryptophan]: 4.49 min.
For the compound `COC(=O)C1=C(C)NC(C)=C(C(=O)OC)C1c1ccccc1[N+](=O)[O-]` [Nifedipine], the LC retention time came to 0.418 min.
Then `C[C@@H](O)[C@H](N)C(=O)O` [L-Threonine], with 6.22 min; and `CC(CCC(=O)NCC(=O)O)C1CCC2C3CCC4CC(O)CCC4(C)C3CC(O)C12C` (configuration not stated) [Glycodeoxycholic acid], with 2.78 min.
The same measure for `CC(=O)NCCCCNCCCN` [N8-Acetylspermidine]: 7.25 min.
As for `NC(N)=NCCCC[C@H](N)C(=O)O` [L-Homoarginine], the LC retention time was 7.39 min.
The same measure for `N[C@@H](Cc1ccc(O)c(O)c1)C(=O)O` [L-Dopa]: 6.06 min; for `CC12CCC(=O)C=C1CCC1C2C(O)CC2(C)C(C(=O)CO)CCC12` (configuration not stated) [Corticosterone]: 0.472 min.
Then `O=C(C=Cc1ccc(O)c(O)c1)OC1CC(O)(C(=O)O)CC(O)C1O` (configuration not stated) [Chlorogenic acid], with 4.76 min.
Consider `COc1cc(C2Oc3cc(C4Oc5cc(O)cc(O)c5C(=O)C4O)ccc3OC2CO)ccc1O` (configuration not stated) [Silibinin], for which the LC retention time was 0.474 min.
Then `C=C(C)C1CCC2=CC(=O)CC(C)C2(C)C1` (single isomer, unassigned; (+)) [(+)-Nootkatone], with 0.417 min; and `NC(Cc1cc(I)c(Oc2ccc(O)c(I)c2)c(I)c1)C(=O)O` (stereo not drawn) [3,3',5-Triiodo-l-thyronine], with 3.5 min.
In the case of `N[C@@H](CS(=O)(=O)O)C(=O)O` [L-Cysteic acid], the LC retention time was 6.79 min.
Take `CC1OC(OC2C(Oc3cc(O)c4c(c3)OC(c3ccc(O)cc3)CC4=O)OC(CO)C(O)C2O)C(O)C(O)C1O` (configuration not stated) [Naringin]: the LC retention time worked out at 3.67 min.
Then `Nc1nc2[nH]c(=O)cnc2c(=O)[nH]1` [Isoxanthopterin], with 4.02 min.
Then `CC(=O)CC(=O)CCC(=O)O` [4,6-Dioxoheptanoic acid], with 0.575 min; and `N[C@@H](CCSSCC[C@H](N)C(=O)O)C(=O)O` [L-Homocystine], with 7.57 min.
Then `CN1CC(=O)NC1=N` [Creatinine], with 2.58 min; and `O=C1CC[C@@H](C(=O)O)N1` [L-Pyroglutamic acid], with 6.81 min; and `CCN(CC)c1ccc2c(-c3ccccc3C(=O)[O-])c3ccc(=[N+](CC)CC)cc-3oc2c1` [Rhodamine B], with 0.776 min.
As to `O=C(O)C1CCCCN1` (stereo not drawn) [L(-)-Pipecolinic acid], the LC retention time came out at 5.85 min.
Then `O=C1CCc2ccc(OCCCCN3CCN(c4cccc(Cl)c4Cl)CC3)cc2N1` [Aripiprazole], with 1.25 min; and `Nc1ncnc2c1ncn2C1OC2COP(=O)(O)OC2C1O` (configuration not stated) [Adenosine cyclophosphate], with 5.66 min.
Then `CC12CCC(=O)C=C1CCC1C2C(O)CC2(C)C1CCC2(O)C(=O)CO` (configuration not stated) [Hydrocortisone], with 0.479 min.
As for `CC(=O)CCC(=O)O` [Levulinic acid], the LC retention time was determined as 0.421 min.
The same measure for `N[C@H](CO)Cc1cnc[nH]1` [L-Histidinol]: 7.05 min; for `O=C(O)CNC(=O)CCc1ccccc1` [N-(3-Phenylpropionyl)glycine]: 1.25 min; for `N[C@H]1C(O)O[C@H](COP(=O)(O)O)[C@@H](O)[C@@H]1O` (stereo partly drawn) [D-Glucosamine 6-phosphate]: 8.21 min.
Then `C[N+](C)(C)CC(=O)[O-]` [Betaine], with 5.7 min; and `NC(Cc1cccc(O)c1)C(=O)O` (racemic) [DL-m-Tyrosine], with 5.38 min.
Then `CCN1CCCC1CNC(=O)c1cc(S(N)(=O)=O)ccc1OC` (racemic) [(+/-)-Sulpiride], with 2.67 min.
Consider `CC(=O)NCCc1c[nH]c2ccc(O)cc12` [N-Acetyl-5-hydroxytryptamine], for which the LC retention time came to 0.492 min.
Then `CC(NC(C)(C)C)C(=O)c1cccc(Cl)c1` (configuration not stated) [Bupropion], with 0.963 min.
The same measure for `CN1CCCC1c1cccnc1` [L-Nicotine]: 3.88 min; for `COc1ccc(CCN(C)CCCC(C#N)(c2ccc(OC)c(OC)c2)C(C)C)cc1OC` (racemic) [(+/-)-Verapamil]: 0.815 min.
Then `C=CC1=C(C)C(=Cc2[nH]c(Cc3[nH]c(C=C4NC(=O)C(C)=C4C=C)c(C)c3CCC(=O)O)c(CCC(=O)O)c2C)NC1=O` [Bilirubin], with 0.518 min; and `NC(CCC(=O)NC(CSSCC(NC(=O)CCC(N)C(=O)O)C(=O)NCC(=O)O)C(=O)NCC(=O)O)C(=O)O` [L-Glutathione oxidized], with 8.69 min.
Turning to `CC(C(=O)O)c1cccc(C(=O)c2ccccc2)c1` (configuration not stated) [Ketoprofen], the LC retention time worked out at 0.455 min.
Then `CC(C=CC=C(C)C=CC1=C(C)CCCC1(C)C)=CC=O` [All trans-Retinal], with 0.407 min; and `CC1OC(OCC2OC(Oc3c(-c4ccc(O)c(O)c4)oc4cc(O)cc(O)c4c3=O)C(O)C(O)C2O)C(O)C(O)C1O` (configuration not stated) [Rutin], with 4.42 min; and `CCC=CCC1C(=O)CCC1CC(=O)OC` (mixture of isomers) [Methyl Jasmonate (mixture of isomers)], with 0.421 min.
As to `CC(=O)Nc1ccc(O)cc1` [4-Acetamidophenol], the LC retention time was 0.477 min.
